This passage reports Ki results from patent US11203594B2, “Anti-proliferative agents for treating PAH” (Pfizer Inc., priority 2019, dated 2021).

Like-named read-outs stand apart in the source and are kept apart here. Bounds are passed on as bounds.

For assay [1], the target named is CDK4/Cyclin D1 (Homo sapiens (Human), UniProt P11802). The experiment in a line: CDK4/Cyclin D1 CHEF assay (Chelation-Enhanced Fluorescence), Ki by Morrison equation. It counts as biochemical. The conditions noted are these: geometric mean, read-out: CDK4/Cyclin D1 GMean Ki. An excerpt: (§1) In Vitro Purified Enzyme Assays to Determine Potency for CDKs
Chain of CDK4/Cyclin D1 (P11802 whole entry): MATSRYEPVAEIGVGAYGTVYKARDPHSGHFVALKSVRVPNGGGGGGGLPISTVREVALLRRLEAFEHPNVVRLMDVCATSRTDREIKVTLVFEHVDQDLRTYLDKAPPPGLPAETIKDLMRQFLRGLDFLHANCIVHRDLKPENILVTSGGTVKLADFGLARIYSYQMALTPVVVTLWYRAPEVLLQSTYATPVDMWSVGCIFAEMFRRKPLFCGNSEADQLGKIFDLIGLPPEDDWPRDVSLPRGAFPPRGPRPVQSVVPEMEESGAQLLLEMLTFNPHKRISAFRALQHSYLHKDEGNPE
Chain of CDK4/Cyclin D1 (P24385 whole entry partner): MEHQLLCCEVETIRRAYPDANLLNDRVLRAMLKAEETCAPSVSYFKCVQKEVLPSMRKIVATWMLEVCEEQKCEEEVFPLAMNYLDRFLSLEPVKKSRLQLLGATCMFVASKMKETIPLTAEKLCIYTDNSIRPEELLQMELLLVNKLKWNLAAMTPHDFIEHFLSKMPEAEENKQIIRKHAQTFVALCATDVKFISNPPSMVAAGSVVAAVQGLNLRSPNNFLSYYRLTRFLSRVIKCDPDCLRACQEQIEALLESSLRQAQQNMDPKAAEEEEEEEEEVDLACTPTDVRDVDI
(§2) CDK4/Cyclin D1 and CDK6/Cylcin D3 CHEF Assay
(§3) The Chelation-Enhanced Fluorescence (CHEF) monitors the phosphorylation state in real time where the level of fluorescence is directly proportional to the amount of phosphorylated substrate. CHEF exploits a synthetic α-amino acid with a side chain bearing an 8-hydroxyquinoline derivative (sulfonamido-oxine, Sox) which, upon coordination to Mg(II), relays information on the phosphorylation state of a proximal serine, threonine or tyrosine residue in peptide-based kinase substrates. Phosphorylation of a specific peptide (Catalog # AQT0258) from AssayQuant Technologies results in an increase in fluorescence at the excitation and emission wavelengths of 360 nm Ex/485 nm Em.
(§4) Examples along with DMSO (negative) and Palbociclib (positive) controls were added to 384-well plates at 100-fold their final concentrations followed by the addition of 10 nM CDK4/Cyclin D1 (LJIC-2007F1) or 10 nM CDK6/Cyclin D3 (LJIC-2009H2) for a 20 minute pre-incubation in assay buffer containing 40 mM HEPES, 1 mM Dithiothreito (DTT, 10 mM MgCl2, 1% Glycerol, 0.1% BSA. Enzyme reactions were initiated by the addition of AssayQuant Technologies peptide and ATP substrates (10 μM CHEF peptide (Catalog # AQT0258), 2 mM ATP) and allowed to proceed for 2 hours followed by fluorescence read of the reaction. Ki determinations were made from a plot of the fractional velocity as a function of inhibitor concentration fit to the Morrison equation with the enzyme concentration as a variable.
(§5) For all the CDK4 and CDK6 assays the Ki constant for compounds were calculated for each enzyme using the Morrison equation. Fractional activity was measured at different compound concentrations, [I] and the data fit to the Morrison equation where [E] is the enzyme concentration, [S] is the ATP concentration, and Kn^App is the apparent Km for ATP for each enzyme under each assay format. With the Ki calculations dependent on the assay conditions for each assay format the resulting Ki becomes assay independent with a strong one to one correlation of Ki values for compounds tested in both assay formats.
(§6) In Table 2, assay data are presented to two (2) significant figures as the geometric mean (Ki) based on the number of replicates listed (Number). A cell having NA means there was no data for that Example in the indicated assay.

Assay [2] has as its target CDK6/Cyclin D3 (Homo sapiens (Human), UniProt Q00534). The experiment in a line: CDK6/Cyclin D3 CHEF assay (Chelation-Enhanced Fluorescence), Ki by Morrison equation. It counts as biochemical. The following applies: geometric mean, read-out: CDK6/Cyclin D3: GMean Ki.
From the text: as §1, §2, §3, §4, §5, §6

Chain of CDK6/Cyclin D3 (Q00534 whole entry): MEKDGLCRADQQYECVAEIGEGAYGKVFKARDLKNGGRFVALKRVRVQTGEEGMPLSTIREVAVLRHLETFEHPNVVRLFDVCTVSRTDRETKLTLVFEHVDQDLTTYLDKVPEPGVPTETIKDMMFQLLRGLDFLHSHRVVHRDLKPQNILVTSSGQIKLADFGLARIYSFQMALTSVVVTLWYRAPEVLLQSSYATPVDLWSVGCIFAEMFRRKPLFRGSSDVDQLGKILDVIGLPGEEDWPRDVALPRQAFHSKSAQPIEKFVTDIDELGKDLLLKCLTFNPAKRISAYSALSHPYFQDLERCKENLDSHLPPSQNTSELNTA
Chain of CDK6/Cyclin D3 (P30281 whole entry partner): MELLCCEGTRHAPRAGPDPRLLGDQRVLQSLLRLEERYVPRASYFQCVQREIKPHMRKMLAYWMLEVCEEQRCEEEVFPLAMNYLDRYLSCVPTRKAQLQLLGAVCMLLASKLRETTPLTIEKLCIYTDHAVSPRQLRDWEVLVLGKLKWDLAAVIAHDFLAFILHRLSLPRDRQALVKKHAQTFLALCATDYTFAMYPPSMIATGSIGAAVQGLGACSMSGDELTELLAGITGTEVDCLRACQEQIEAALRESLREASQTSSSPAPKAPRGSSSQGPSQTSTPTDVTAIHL

As to `CC(=O)c1c(C)c2cnc(N[C@@H]3CCOC[C@H]3O)nc2n([C@H]2CCC[C@]2(C)O)c1=O` (mixture of isomers) [Example 6, 6-Acetyl-8-[(1S,2S)-2-hydroxy-2-methylcyclopentyl]-2-{[(3S,4R)-3-hydroxytetrahydro-2H-pyran-4-yl]amino}-5-methylpyrido[2,3-d]pyrimidin-7(8H)-one and 6-Acetyl-8-[(1R,2R)-2-hydroxy-2-methylcyclopentyl]-2-{[(3S,4R)-3-hydroxytetrahydro-2H-pyran-4-yl]amino}-5-methylpyrido[2,3-d]pyrimidin-7(8H)-one], the figures for the Ki in assay [1] (tested in CHEF Assay) and in assay [2] (tested in CHEF Assay) were 113 nM and 190 nM, respectively.

As for `CC(=O)c1c(C)c2cnc(N[C@@H]3CCOC[C@H]3O)nc2n([C@H]2CCC[C@]2(C)O)c1=O` (mixture of isomers) [Example 7, 6-Acetyl-8-[(1S,2S)-2-hydroxy-2-methylcyclopentyl]-2-{[(3S,4R)-3-hydroxytetrahydro-2H-pyran-4-yl]amino}-5-methylpyrido[2,3-d]pyrimidin-7(8H)-one and 6-Acetyl-8-[(1R,2R)-2-hydroxy-2-methylcyclopentyl]-2-{[(3S,4R)-3-hydroxytetrahydro-2H-pyran-4-yl]amino}-5-methylpyrido[2,3-d]pyrimidin-7(8H)-one], the Ki in assay [1] (tested in CHEF Assay) was determined as 7.2 nM; in assay [2] (tested in CHEF Assay) it was 7.7 nM.

Turning to `CC(=O)c1c(C)c2cnc(N[C@@H]3CCOC(C)(C)[C@H]3O)nc2n(C2CCCC2)c1=O` (mixture of isomers) [Example 8, 6-Acetyl-8-cyclopentyl-2-{[(3S,4R)-3-hydroxy-2,2-dimethyltetrahydro-2H-pyran-4-yl]amino}-5-methylpyrido[2,3-d]pyrimidin-7(8H)-one and 6-Acetyl-8-cyclopentyl-2-{[(3R,4S)-3-hydroxy-2,2-dimethyltetrahydro-2H-pyran-4-yl]amino}-5-methylpyrido[2,3-d]pyrimidin-7(8H)-one], the Ki was over 1200 nM in assay [1] (tested in CHEF Assay) and over 560 nM in assay [2] (tested in CHEF Assay).

Turning to `CC(=O)c1c(C)c2cnc(N[C@@H]3CCOC(C)(C)[C@H]3O)nc2n(C2CCCC2)c1=O` (mixture of isomers) [Example 9, 6-Acetyl-8-cyclopentyl-2-{[(3S,4R)-3-hydroxy-2,2-dimethyltetrahydro-2H-pyran-4-yl]amino}-5-methylpyrido[2,3-d]pyrimidin-7(8H)-one and 6-Acetyl-8-cyclopentyl-2-{[(3R,4S)-3-hydroxy-2,2-dimethyltetrahydro-2H-pyran-4-yl]amino}-5-methylpyrido[2,3-d]pyrimidin-7(8H)-one], the Ki in assay [1] (tested in CHEF Assay) stood at 2.7 nM; in assay [2] (tested in CHEF Assay), 6.7 nM.

As for `CC(=O)c1c(C)c2cnc(N[C@@H]3CCOC[C@H]3O)nc2n([C@@H]2CC[C@@H]3C[C@@H]32)c1=O` (mixture of isomers) [Example 12, 6-Acetyl-8-[(1S,2R,5R)-bicyclo[3.1.0]hexan-2-yl]-2-{[(3S,4R)-3-hydroxytetrahydro-2H-pyran-4-yl]amino}-5-methylpyrido[2,3-d]pyrimidin-7(8H)-one and 6-Acetyl-8-[(1R,2S,5S)-bicyclo[3.1.0]hexan-2-yl]-2-{[(3S,4R)-3-hydroxytetrahydro-2H-pyran-4-yl]amino}-5-methylpyrido[2,3-d]pyrimidin-7(8H)-one], the Ki in assay [1] (tested in CHEF Assay) was 8.5 nM; in assay [2] (tested in CHEF Assay), 9.7 nM.

`CC(=O)c1c(C)c2cnc(N[C@@H]3CCOC[C@H]3O)nc2n([C@@H]2CC[C@@H]3C[C@@H]32)c1=O` (mixture of isomers) [Example 13, 6-Acetyl-8-[(1S,2R,5R)-bicyclo[3.1.0]hexan-2-yl]-2-{[(3S,4R)-3-hydroxytetrahydro-2H-pyran-4-yl]amino}-5-methylpyrido[2,3-d]pyrimidin-7(8H)-one and 6-Acetyl-8-[(1R,2S,5S)-bicyclo[3.1.0]hexan-2-yl]-2-{[(3S,4R)-3-hydroxytetrahydro-2H-pyran-4-yl]amino}-5-methylpyrido[2,3-d]pyrimidin-7(8H)-one]: the Ki in assay [1] (tested in CHEF Assay) is 2.1 nM; in assay [2] (tested in CHEF Assay), 3.3 nM.

Regarding `CC(=O)c1c(C)c2cnc(N[C@@H]3CCOC[C@H]3O)nc2n([C@@H]2CCC[C@]2(C)F)c1=O` (mixture of isomers) [Example 16, 6-Acetyl-8-[(1R,2S)-2-fluoro-2-methylcyclopentyl]-2-{[(3S,4R)-3-hydroxytetrahydro-2H-pyran-4-yl]amino}-5-methylpyrido[2,3-d]pyrimidin-7(8H)-one and 6-Acetyl-8-[(1S,2R)-2-fluoro-2-methylcyclopentyl]-2-{[(3S,4R)-3-hydroxytetrahydro-2H-pyran-4-yl]amino}-5-methylpyrido[2,3-d]pyrimidin-7(8H)-one], the values for the Ki in assay [1] (tested in CHEF Assay) and in assay [2] (tested in CHEF Assay) were 2.6 nM and 5 nM, respectively.

`CC(=O)c1c(C)c2cnc(N[C@@H]3CCOC[C@H]3O)cc2n(C2CCC(O)C2)c1=O` (single isomer, unassigned) [Example 14]: the Ki is 0.9 nM in assay [1] (tested in CHEF Assay) and 2.6 nM in assay [2] (tested in CHEF Assay).

Turning to `CC(=O)c1c(C)c2cnc(N[C@@H]3CCOC[C@H]3O)cc2n(C2CCC(O)C2)c1=O` (single isomer, unassigned) [Example 15], the Ki stood at 3.8 nM in assay [1] (tested in CHEF Assay) and 7.7 nM in assay [2] (tested in CHEF Assay).

With `CC(=O)c1c(C)c2cnc(N[C@@H]3CCOC[C@H]3O)nc2n([C@H]2CCC[C@]2(C)F)c1=O` (single isomer, unassigned) [Example 23], the Ki in assay [1] (tested in CHEF Assay) is over 1100 nM; in assay [2] (tested in CHEF Assay), over 560 nM.

For `CC(=O)c1c(C)c2cnc(N[C@@H]3CCOC[C@H]3O)nc2n(C2CCC2)c1=O` [Example 1, 6-Acetyl-8-cyclobutyl-2-{[(3S,4R)-3-hydroxytetrahydro-2H-pyran-4-yl]amino}-5-methylpyrido[2,3-d]pyrimidin-7(8H)-one], the Ki turned out to be 1.8 nM in assay [1] (tested in CHEF Assay) and 2 nM in assay [2] (tested in CHEF Assay).

As to `CC(=O)c1c(C)c2cnc(N[C@@H]3CCOC[C@H]3O)nc2n(C2CCCC2)c1=O` [Example 2, 6-acetyl-8-cyclopentyl-2-{[(3S,4R)-3-hydroxytetrahydro-2H-pyran-4-yl]amino}-5-methylpyrido[2,3-d]pyrimidin-7(8H)-one], the Ki in assay [1] (tested in both CHEF and MSA) was found to be 0.8 nM; in assay [2] (tested in both CHEF and MSA), 1.2 nM.

Turning to `CC(=O)c1c(C)c2cnc(N[C@@H]3CCOC[C@H]3O)nc2n(C2CC3(CNC3)C2)c1=O` [Example 3, 6-Acetyl-8-(2-azaspiro[3.3]heptan-6-yl)-2-{[(3S,4R)-3-hydroxytetrahydro-2H-pyran-4-yl]amino}-5-methylpyrido[2,3-d]pyrimidin-7(8H)-one], the Ki in assay [1] (tested in CHEF Assay) is 1.1 nM; in assay [2] (tested in CHEF Assay), 2.1 nM.

Take `CC(=O)c1c(C)c2cnc(N[C@@H]3CCOC[C@H]3O)nc2n([C@@H]2CCC[C@@H]2C)c1=O` [Example 4, 6-Acetyl-2-{[(3S,4R)-3-hydroxytetrahydro-2H-pyran-4-yl]amino}-5-methyl-8-[(1R,2S)-2-methylcyclopentyl]pyrido[2,3-d]pyrimidin-7(8H)-one]: the figures for the Ki in assay [1] (tested in CHEF Assay) and in assay [2] (tested in CHEF Assay) were 1.6 nM and 2.1 nM, respectively.

For the molecule `CC(=O)c1c(C)c2cnc(N[C@@H]3CCOC[C@H]3O)cc2n(C2CCCC2)c1=O` [Example 5, 3-Acetyl-1-cyclopentyl-7-{[(3S,4R)-3-hydroxytetrahydro-2H-pyran-4-yl]amino}-4-methyl-1,6-naphthyridin-2(1H)-one], the Ki in assay [1] (tested in both CHEF and MSA) turned out to be 0.4 nM; in assay [2] (tested in both CHEF and MSA) it was 1.3 nM.

`CC[C@H]1CCC[C@H]1n1c(=O)c(C(C)=O)c(C)c2cnc(N[C@@H]3CCOC[C@H]3O)nc21` [Example 10, 6-Acetyl-8-[(1R,2S)-2-ethylcyclopentyl]-2-{[(3S,4R)-3-hydroxytetrahydro-2H-pyran-4-yl]amino}-5-methylpyrido[2,3-d]pyrimidin-7(8H)-one]: the Ki in assay [1] (tested in CHEF Assay) amounted to 2.7 nM; in assay [2] (tested in CHEF Assay), 5 nM.

As to `CC(=O)c1c(C)c2cnc(N[C@@H]3CCOC[C@H]3O)cc2n([C@H]2CCOC2)c1=O` [Example 11, 3-Acetyl-7-{[(3S,4R)-3-hydroxytetrahydro-2H-pyran-4-yl]amino}-4-methyl-1-[(3S)-tetrahydrofuran-3-yl]-1,6-naphthyridin-2(1H)-one], the Ki in assay [1] (tested in CHEF Assay) is 34 nM; in assay [2] (tested in CHEF Assay), 16 nM.

With `CC(=O)c1c(C)c2cnc(N[C@@H]3CCOC[C@H]3O)nc2n([C@H]2CCNC2)c1=O` [Example 18, 6-Acetyl-2-{[(3S,4R)-3-hydroxytetrahydro-2H-pyran-4-yl]amino}-5-methyl-8-[(3S)-pyrrolidin-3-yl]pyrido[2,3-d]pyrimidin-7(8H)-one], the figures for the Ki in assay [1] (tested in CHEF Assay) and in assay [2] (tested in CHEF Assay) were 9.6 nM and 34 nM, respectively.
